The METLIN SMRT retention time set (Domingo-Almenara et al. 2019)

Assay: gradient 5% acetonitrile 3 min, to 50% in 2 min, to 85% in 15 min, held 3 min, 100 µL/min
Details: column: Zorbax Extend-C18 2.1 x 50 mm; eluents: water / acetonitrile, 0.1% formic acid
Procedure, shortened: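 Retention times come from adduct peaks that were picked computationally and then checked by hand. The standards, pure and pooled in mixtures of ~100 molecules, were run on a Zorbax Extend-C18 column (2.1 × 50 mm, 1.8 μm) at 100 μL/min with water and acetonitrile, each with 0.1% formic acid. Detection was by quadrupole time-of-flight mass spectrometry in positive and negative ionization mode, with a dead volume of 40 μL and a dwell volume of 900 μL.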

Structure (SMILES)	RP-LC retention time
Cc1ccc(NC(=O)Nc2ccc3nnc(C)n3c2)c(C)c1	695 s
CCn1cc(C2=CCN(C(=O)NCc3ccc(OC)cc3)CC2)c2cccnc21	858 s
CC1=NS(=O)(=O)N(C)C=C1C(=O)OCCc1ccccc1	967 s
COc1cccc2cc(C(=O)NC3C=CS(=O)(=O)C3)oc12 (stereo unspecified)	652 s
COc1ccc2c(c1)C1(CCN(C(=O)Nc3cccc(C)c3)C1)C(=O)N2C (stereo unspecified)	809 s
Cc1cccc(-c2nc(Cn3nnc(-c4nc(-c5ccc6c(c5)OCO6)no4)c3C)c(C)o2)c1	1240 s
Cc1ccccc1-c1nc(-c2cccc(-c3ccnn3C)c2)no1	1220 s
Cn1c(=O)n(C)c2cc(S(=O)(=O)C3CCCCC3)c(NC(=O)c3ccccc3F)cc21	940 s
CCN(CC)c1ncc2c(n1)CCC(C(=O)NCc1ccc(F)cc1Cl)C2 (stereo unspecified)	731 s
CCc1nc(N2CCC(C(=O)NCc3ccccc3C(F)(F)F)CC2)c2c(C)scc2n1	754 s
CCc1c(C2CCN(C(=O)Nc3ccc(OC)cc3)CC2)noc1N	693 s
CS(=O)(=O)N1CCC(OC2CCN(C(=O)Nc3cccc(Cl)c3)CC2)CC1	831 s
COc1ccc(OC)c(CNC(=O)c2c(C)sc3ccn(CC(C)C)c(=O)c23)c1	975 s
CCc1ccc(S(=O)(=O)NCCc2sc(C)nc2C)s1	647 s
O=S(=O)(c1ccc(Cl)s1)N1CCN(c2ccc(-n3ccnc3)nn2)CC1	593 s
CCOc1ccc(NC(=O)Cn2cccc(-c3nc(-c4ccc(Br)cc4)no3)c2=O)cc1	1020 s
Cc1ccn2cc(-c3ccc(NS(=O)(=O)c4ccc5cccc6c5c4CC6)cc3)nc2n1	748 s
CCC(C)NC(=O)Cc1c[nH]c2ncccc12 (stereo unspecified)	562 s
O=c1ccn(-c2ccc(Cl)cc2)nc1-c1nc(-c2ccccc2Cl)no1	963 s

Structure (SMILES)	RP-LC retention time
COc1ccc(NC(=O)Cn2c(N3CCOCC3)nc(C)cc2=O)cc1Cl	1120 s
COc1ccc(-c2nnc(-c3ccc(C)c(S(=O)(=O)N4CCC(C)CC4)c3)o2)cc1	1220 s
COc1ccc(S(=O)(=O)CCC(=O)Nc2ccc(Cl)c3ncsc23)cc1	707 s
CCC1CN2C=Nc3oc(C)c(C(=O)Nc4cccc(C(F)(F)F)c4)c3C2=N1 (stereo unspecified)	719 s
CCNC(=O)c1nc(C(=O)NCCc2ccc(Cl)cc2)cs1	842 s
Cc1ccc(NC(=O)N2CCCC(C)(C(=O)NCc3ccc(F)cc3)C2)cc1F (stereo unspecified)	959 s
CC1CCC(NC(=O)C2CCN(C(=O)c3cc(-c4ccncc4)n[nH]3)CC2)CC1 (stereo unspecified)	624 s
COCCCNC(=O)N1CCN(Cc2nc3cc(C(=O)N(C)C)ccc3n2C)CC1	560 s
O=C1COc2ccc(NC(=O)c3cc(C4CC4)n(C4CCS(=O)(=O)C4)n3)cc2N1 (stereo unspecified)	652 s
O=C(NCc1csc(-c2cccs2)n1)C1CCN(C(=O)c2ccc(F)cc2)CC1	743 s
COc1cccc(N2C(=O)C3N=NN(Cc4nc(-c5ccc(C)c(C)c5)no4)C3C2=O)c1 (stereo unspecified)	1030 s
O=C(NCc1cccs1)C1CCN(c2cnc3nccnc3c2)CC1	632 s
Cc1noc(C2CN(C(=O)Nc3cc(Cl)ccc3C)CC23CCOCC3)n1 (stereo unspecified)	760 s
O=C(Nc1ccc(F)cc1)Nc1cccn2ncnc12	763 s
CCCCN(CC(=O)N1CCNCC1)C(=O)c1ccc(Br)cc1	589 s
CCOC(=O)c1cccc(N2C=C(C#N)S(=O)(=O)c3ccc(Cl)cc32)c1	996 s
COc1cccc(-c2ccc(=O)n(Cc3nc(-c4ccccc4)no3)n2)c1	968 s
COc1cc(CC(=O)N2CCN(c3cc(C)n4cnnc4n3)CC2)cc(OC)c1	607 s
Cc1ccc2nc(CN3CCN(C(=O)Nc4ccc(F)cc4F)CC3)oc2c1	706 s

Structure (SMILES)	RP-LC retention time
O=C(NCC1CCOCC1)Nc1cc(F)cc(F)c1	703 s
Cc1cc(=O)n(CC(=O)N(C)c2ccccc2)c(N2CCCCC2)n1	669 s
CN1c2cc(F)ccc2C(=O)NC12CCN(C(=O)NCc1ccccc1)CC2	724 s
CCOC(=O)c1ccc(NC(=O)Cn2cnc3nc(N4CCCC(C(=O)NC)C4)sc3c2=O)cc1 (stereo unspecified)	658 s
C=CCn1c(C)c(CC(=O)NCCOC)c(=O)n2nc(-c3ccc(C)cc3)nc12	732 s
Cc1ccccc1-c1nc(C2CCN(S(=O)(=O)c3ccccc3)CC2)no1	1140 s
O=C(NCCCN1CCOCC1)C1CCCN(c2nccnc2Sc2ccccc2)C1 (stereo unspecified)	651 s
Cc1cc2c(cc1S(=O)(=O)N1CCC(C(=O)NCCC3=CCCCC3)CC1)OCC(=O)N2	820 s
Cc1c(C(=O)O)sc2nc(SCC(=O)Nc3ccccc3C(F)(F)F)[nH]c(=O)c12	669 s
Cc1ccc(S(=O)(=O)N2CCc3c(c(-c4nnc(-c5ccccc5F)o4)nn3C)C2)cc1Cl	1040 s
Cc1nc2c(sc3nc(-c4ccccc4)ccc32)c(=O)n1CC(=O)Nc1cccc(C(F)(F)F)c1	1160 s
COC(=O)c1cc2n(n1)CC(C)(C(=O)NC1CCCCC1)N(c1ccccc1F)C2=O (stereo unspecified)	853 s
O=C(CCCSc1ccc(NC(=O)c2ccc(F)cc2)nn1)NCc1cccs1	802 s
O=c1c2cc3c(cc2nc(SCc2nc(-c4ccccc4)no2)n1-c1ccc(F)cc1)OCO3	1140 s
Cc1ccc(CNC(=O)C(C)Oc2cc(C(F)(F)F)c3c(C)nn(C)c3n2)cc1 (stereo unspecified)	1030 s
Cc1nc(-c2csc(S(=O)(=O)N3CCC(C(=O)Nc4cccc(F)c4)CC3)c2)no1	925 s
O=C1NCN(c2ccccc2)C12CCN(CCCC(c1ccc(F)cc1)c1ccc(F)cc1)CC2	892 s
Cc1ccc(CN2CCN(CC(C)C(=O)NCc3cc(F)ccc3F)C(=O)C2=O)cc1 (stereo unspecified)	765 s
COc1ccc(NC(=O)C2CCCN(c3nccnc3Sc3ccccc3)C2)cc1 (stereo unspecified)	1030 s

Results, then the compound that gave them:

RP-LC retention time	Structure (SMILES)
655 s	Cc1cc(-c2nnc(NC(=O)c3ccc4c(c3)OCCO4)o2)n(C)n1
805 s	Cc1ccc(Nc2c(-c3ccc(N(C)C)cc3)nc3ncccn23)cc1Cl
586 s	CSc1ncccc1C(=O)N1CCCn2nc(-c3ccncc3)cc2C1
907 s	CCCN1C(=O)CCc2cc(NS(=O)(=O)c3ccc(CC)cc3)ccc21
1030 s	CC(C)Cn1c(=O)c(C(=O)NCc2cccc(C(F)(F)F)c2)nc2cccnc21
567 s	COc1cc(CN2CCc3nc(N4CCN(c5ccccn5)CC4)ncc3C2)cc(OC)c1OC
980 s	Cc1cccc(-c2noc(C3CC(=O)N(c4ccc5c(c4)OCCO5)C3)n2)c1 (stereo unspecified)
891 s	O=C(C1CCC1)N1CC(c2nc(-c3ccc(F)cc3)no2)C2(CCOCC2)C1 (stereo unspecified)
591 s	O=C(c1ccc2c(c1)OCO2)N1CCCN(c2nnc3ccc(Cl)cn23)CC1
578 s	O=C(NCCN1CCOCC1)c1nnc(-c2ccc(S(=O)(=O)N3CCOCC3)cc2)o1
799 s	COc1cc2c(cc1OC)CN(C(=O)CCc1sc(C)nc1-c1cccs1)CC2
703 s	COc1ccc(NS(=O)(=O)c2ccc(N3C(=O)CCC3=O)cc2)c(OC)c1
722 s	O=C(NCc1ccc(F)cc1F)C1CCCN(c2ccc(-c3ccccc3)nn2)C1 (stereo unspecified)
612 s	COc1cc2c(cc1OC)C(C(=O)N1CCN(C)CC1)C(c1ccc(SC)cc1)N(C)C2=O (stereo unspecified)
865 s	O=C(Nc1cnn(-c2ncc(N3CCCCC3)cn2)c1)c1ccccc1C(F)(F)F
886 s	O=C(NC1CC1)[C@@H]1C[C@H](Oc2ccccc2)CN1C(=O)CCC1CCCC1
728 s	CC(C)c1ccc(OCC(=O)Nc2nnc(C3CC(=O)N(c4ccccc4)C3)o2)cc1 (stereo unspecified)
992 s	O=C(Nc1ccc(OC(F)(F)F)cc1)C1CCCN(c2cc(-n3cccn3)ncn2)C1 (stereo unspecified)
717 s	CCCn1c(=O)c(C)nc2cc(-c3noc(-c4cccc(N(C)C)c4)n3)ccc21
680 s	CC1CCCN(c2ccc(-c3noc(CN4CCC5(CC4)OCCO5)n3)cn2)C1 (stereo unspecified)
912 s	Cc1cc(C)c(S(=O)(=O)N2CCN(C(=O)c3ccc4c(c3)OCO4)CC2)c(C)c1
927 s	Cc1cc2c(c(=O)n(-c3ccccc3)c(=O)n2CC(=O)Nc2ccc(C(F)(F)F)cc2)n1C
1120 s	O=C(c1sc2ncccc2c1-n1cccc1)N1CCN(c2ccccc2Cl)CC1
881 s	CCn1cc(S(=O)(=O)N2CCC(c3noc(-c4ccccc4)n3)C2)cn1 (stereo unspecified)
752 s	COc1cc2nc(C(=O)N3CCCCC3)cc(Nc3cccc(C(F)(F)F)c3)c2cc1OC
694 s	Cc1noc([C@@H]2CC(F)(F)CN2C(=O)c2coc(C)n2)n1
908 s	COc1cccc(CCC(=O)N2CC3CN(S(=O)(=O)c4ccc(C)cc4)CC(C2)O3)c1
826 s	CCN1C(=O)c2cccnc2Sc2cc(NC(=O)Cc3cccc(F)c3)ccc21
709 s	COc1ccc(NC(=O)C2CC(=O)N(c3cccc(NC(C)=O)c3)C2)cc1Cl (stereo unspecified)
